Assay results reported in ChEMBL document CHEMBL1782045, “Discovery, synthesis, and investigation of the antitumor activity of novel piperazinylpyrimidine derivatives” (Eur J Med Chem, 2011).

Legend:
[1] = system: T47D; experiment: Cytotoxicity against human T47D cells after 48 hrs by sulforhodamine B assay; type: cell-based
[2] = system: SN12C; experiment: Cytotoxicity against human SN12C cells after 48 hrs by sulforhodamine B assay; type: cell-based
[3] = system: NCI-H226; experiment: Cytotoxicity against human NCI-H226 cells after 48 hrs by sulforhodamine B assay; type: cell-based; conditions: nci-h226, 48 h
[4] = system: RPMI-8226; experiment: Cytotoxicity against human RPMI8226 cells after 48 hrs by sulforhodamine B assay; type: cell-based; conditions: rpmi-8226, 48 h
[5] = system: OVCAR-3; experiment: Cytotoxicity against human OVCAR3 cells after 48 hrs by sulforhodamine B assay; type: cell-based; conditions: ovcar-3, 48 h
[6] = system: K562; experiment: Growth inhibition of human K562 cells after 48 hrs by sulforhodamine B assay; type: functional; conditions: K562, 48 h
[7] = system: CAKI-1; experiment: Cytotoxicity against human Caki1 cells after 48 hrs by sulforhodamine B assay; type: cell-based; conditions: caki-1, 48 h
[8] = system: MDA-MB-231; experiment: Growth inhibition of human MDA-MB-231 cells after 48 hrs by sulforhodamine B assay; type: functional; conditions: MDA-MB-231, 48 h
[9] = system: HOP-62; experiment: Cytotoxicity against human HOP62 cells after 48 hrs by sulforhodamine B assay; type: cell-based; conditions: hop-62, 48 h
[10] = biological target: Receptor-type tyrosine-protein kinase FLT3 (Homo sapiens) (UniProt P36888); experiment: Inhibition of human FLT3 using gamma-33P-ATP as substrate assessed as enzyme functional activity at 1 uM by scintillation counting relative to untreated control; parameters: scale not given: the % may be the effect or the level left
[11] = system: SK-OV-3; experiment: Cytotoxicity against human SKOV3 cells after 48 hrs by sulforhodamine B assay; type: cell-based; conditions: sk-ov-3, 48 h
[12] = system: Tyrosine-protein kinase ABL1 (Homo sapiens), P00519 [F317I]; experiment: Binding affinity to human phosphorylated ABL1 F317I mutant at 10 uM incubated for 1 hr by kinase binding assay relative to untreated control
[13] = system: HCT-15; experiment: Cytotoxicity against human HCT15 cells after 48 hrs by sulforhodamine B assay; type: cell-based; conditions: hct-15, 48 h
[14] = system: HCT-116; experiment: Cytotoxicity against human HCT116 cells after 48 hrs by sulforhodamine B assay; type: cell-based; conditions: hct-116, 48 h
[15] = system: TK-10; experiment: Growth inhibition of human TK10 cells after 48 hrs by sulforhodamine B assay; type: functional; conditions: TK-10, 48 h
[16] = system: UACC-62; experiment: Cytotoxicity against human UACC62 cells after 48 hrs by sulforhodamine B assay; type: cell-based; conditions: uacc-62, 48 h
[17] = system: COLO 205; experiment: Cytotoxicity against human COLO205 cells after 48 hrs by sulforhodamine B assay; type: cell-based; conditions: colo 205, 48 h
[18] = biological target: RAC-beta serine/threonine-protein kinase (Homo sapiens) (UniProt P31751); experiment: Inhibition of human PKBbeta using gamma-33P-ATP as substrate assessed as enzyme functional activity at 1 uM by scintillation counting relative to untreated control; parameters: scale not given: the % may be the effect or the level left
[19] = system: SNB-19; experiment: Growth inhibition of human SNB19 cells after 48 hrs by sulforhodamine B assay; type: functional; conditions: SNB-19, 48 h
[20] = system: T1, Receptor-type tyrosine-protein kinase FLT3 (Homo sapiens), P36888 [D835H]; experiment: Binding affinity to human FLT3 D835H mutant at 10 uM incubated for 1 hr by kinase binding assay relative to untreated control
T1 sequence (whole entry): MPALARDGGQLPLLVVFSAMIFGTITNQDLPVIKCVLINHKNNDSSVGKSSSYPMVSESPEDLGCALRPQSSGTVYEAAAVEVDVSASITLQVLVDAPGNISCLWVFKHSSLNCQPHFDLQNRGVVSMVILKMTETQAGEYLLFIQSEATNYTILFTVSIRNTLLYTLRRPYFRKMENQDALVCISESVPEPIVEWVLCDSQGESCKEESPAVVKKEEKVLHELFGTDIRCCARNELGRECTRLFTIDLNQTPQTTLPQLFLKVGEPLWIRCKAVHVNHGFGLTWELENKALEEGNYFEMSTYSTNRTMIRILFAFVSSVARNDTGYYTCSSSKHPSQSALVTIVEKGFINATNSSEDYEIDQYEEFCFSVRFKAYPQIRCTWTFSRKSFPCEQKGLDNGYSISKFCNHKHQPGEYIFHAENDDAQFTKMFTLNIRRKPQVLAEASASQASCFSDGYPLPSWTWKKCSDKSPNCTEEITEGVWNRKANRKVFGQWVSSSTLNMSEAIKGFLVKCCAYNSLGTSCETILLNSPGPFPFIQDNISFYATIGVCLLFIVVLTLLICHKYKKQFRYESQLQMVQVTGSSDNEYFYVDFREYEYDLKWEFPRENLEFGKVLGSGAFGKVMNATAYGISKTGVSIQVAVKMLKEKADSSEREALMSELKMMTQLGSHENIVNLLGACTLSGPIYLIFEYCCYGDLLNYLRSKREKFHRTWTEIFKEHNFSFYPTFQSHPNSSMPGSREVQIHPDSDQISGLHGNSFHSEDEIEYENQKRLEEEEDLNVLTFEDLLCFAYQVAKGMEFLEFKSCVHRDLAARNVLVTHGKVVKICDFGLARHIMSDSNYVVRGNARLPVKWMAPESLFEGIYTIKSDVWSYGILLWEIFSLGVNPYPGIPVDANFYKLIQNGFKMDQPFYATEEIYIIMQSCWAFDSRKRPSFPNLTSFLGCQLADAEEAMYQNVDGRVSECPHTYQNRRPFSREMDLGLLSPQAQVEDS

[21] = biological target: Mitogen-activated protein kinase 1 (Homo sapiens) (UniProt P28482); experiment: Inhibition of human MAPK1 using gamma-33P-ATP as substrate assessed as enzyme functional activity at 1 uM by scintillation counting relative to untreated control; parameters: scale not given: the % may be the effect or the level left
[22] = system: RXF 393; experiment: Growth inhibition of human RXF393 cells after 48 hrs by sulforhodamine B assay; type: functional; conditions: RXF 393, 48 h
[23] = system: IGROV-1; experiment: Cytotoxicity against human IGROV1 cells after 48 hrs by sulforhodamine B assay; type: cell-based; conditions: igrov-1, 48 h
[24] = system: SNB-19; experiment: Cytotoxicity against human SNB19 cells after 48 hrs by sulforhodamine B assay; type: cell-based; conditions: snb-19, 48 h
[25] = system: UACC-257; experiment: Cytotoxicity against human UACC257 cells after 48 hrs by sulforhodamine B assay; type: cell-based; conditions: uacc-257, 48 h
[26] = system: NCI-H322M; experiment: Cytotoxicity against human NCI-H322M cells after 48 hrs by sulforhodamine B assay; type: cell-based
[27] = system: SW-620; experiment: Growth inhibition of human SW620 cells after 48 hrs by sulforhodamine B assay; type: functional; conditions: SW-620, 48 h
[28] = system: UACC-62; experiment: Growth inhibition of human UACC62 cells after 48 hrs by sulforhodamine B assay; type: functional; conditions: UACC-62, 48 h
[29] = system: SN12C; experiment: Growth inhibition of human SN12C cells after 48 hrs by sulforhodamine B assay; type: functional
[30] = biological target: Casein kinase I isoform epsilon (Homo sapiens) (UniProt P49674); experiment: Binding affinity to human CSNK1E at 10 uM incubated for 1 hr by kinase binding assay relative to untreated control
[31] = system: DU-145; experiment: Cytotoxicity against human DU145 cells after 48 hrs by sulforhodamine B assay; type: cell-based; conditions: du-145, 48 h
[32] = system: SF-268; experiment: Growth inhibition of human SF268 cells after 48 hrs by sulforhodamine B assay; type: functional; conditions: SF-268, 48 h

RAC-beta serine/threonine-protein kinase (Homo sapiens), sequence (P31751 whole entry): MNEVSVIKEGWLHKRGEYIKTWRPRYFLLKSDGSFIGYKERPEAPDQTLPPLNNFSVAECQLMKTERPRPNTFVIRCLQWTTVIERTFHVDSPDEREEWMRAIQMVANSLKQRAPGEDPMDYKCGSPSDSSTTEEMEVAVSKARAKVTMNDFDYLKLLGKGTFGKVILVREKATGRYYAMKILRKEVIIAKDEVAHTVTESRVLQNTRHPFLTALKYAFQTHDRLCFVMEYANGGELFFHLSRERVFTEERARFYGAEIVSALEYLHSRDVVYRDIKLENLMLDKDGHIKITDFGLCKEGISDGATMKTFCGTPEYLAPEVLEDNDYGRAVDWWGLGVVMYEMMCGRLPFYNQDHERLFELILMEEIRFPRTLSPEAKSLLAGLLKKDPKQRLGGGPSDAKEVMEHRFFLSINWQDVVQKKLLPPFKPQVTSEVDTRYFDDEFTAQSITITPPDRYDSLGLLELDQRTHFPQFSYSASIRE
Casein kinase I isoform epsilon (Homo sapiens), sequence (P49674 whole entry, looked up, canonical isoform): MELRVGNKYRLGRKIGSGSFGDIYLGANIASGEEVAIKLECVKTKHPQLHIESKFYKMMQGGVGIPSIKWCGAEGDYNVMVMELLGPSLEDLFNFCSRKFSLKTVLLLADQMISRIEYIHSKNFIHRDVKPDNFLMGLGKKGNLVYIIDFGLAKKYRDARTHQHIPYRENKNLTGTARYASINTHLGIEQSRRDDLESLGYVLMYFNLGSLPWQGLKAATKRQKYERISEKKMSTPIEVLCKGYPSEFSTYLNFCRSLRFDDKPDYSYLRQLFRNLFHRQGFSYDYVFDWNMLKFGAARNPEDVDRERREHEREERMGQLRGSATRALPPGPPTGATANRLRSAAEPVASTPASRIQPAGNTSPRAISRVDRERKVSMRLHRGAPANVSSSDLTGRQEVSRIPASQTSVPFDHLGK
Mitogen-activated protein kinase 1 (Homo sapiens), sequence (P28482 whole entry): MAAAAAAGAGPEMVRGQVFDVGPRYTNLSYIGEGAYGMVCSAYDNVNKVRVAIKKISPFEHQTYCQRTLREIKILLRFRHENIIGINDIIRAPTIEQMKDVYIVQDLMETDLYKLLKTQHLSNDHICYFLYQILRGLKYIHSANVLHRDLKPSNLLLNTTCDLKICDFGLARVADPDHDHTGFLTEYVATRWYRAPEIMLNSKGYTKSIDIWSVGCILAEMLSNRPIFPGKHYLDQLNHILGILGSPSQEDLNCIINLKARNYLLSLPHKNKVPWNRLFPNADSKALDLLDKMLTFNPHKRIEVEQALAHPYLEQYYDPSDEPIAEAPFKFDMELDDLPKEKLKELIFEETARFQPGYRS
Tyrosine-protein kinase ABL1 (Homo sapiens), P00519 [F317I], sequence (P00519 whole entry F317I): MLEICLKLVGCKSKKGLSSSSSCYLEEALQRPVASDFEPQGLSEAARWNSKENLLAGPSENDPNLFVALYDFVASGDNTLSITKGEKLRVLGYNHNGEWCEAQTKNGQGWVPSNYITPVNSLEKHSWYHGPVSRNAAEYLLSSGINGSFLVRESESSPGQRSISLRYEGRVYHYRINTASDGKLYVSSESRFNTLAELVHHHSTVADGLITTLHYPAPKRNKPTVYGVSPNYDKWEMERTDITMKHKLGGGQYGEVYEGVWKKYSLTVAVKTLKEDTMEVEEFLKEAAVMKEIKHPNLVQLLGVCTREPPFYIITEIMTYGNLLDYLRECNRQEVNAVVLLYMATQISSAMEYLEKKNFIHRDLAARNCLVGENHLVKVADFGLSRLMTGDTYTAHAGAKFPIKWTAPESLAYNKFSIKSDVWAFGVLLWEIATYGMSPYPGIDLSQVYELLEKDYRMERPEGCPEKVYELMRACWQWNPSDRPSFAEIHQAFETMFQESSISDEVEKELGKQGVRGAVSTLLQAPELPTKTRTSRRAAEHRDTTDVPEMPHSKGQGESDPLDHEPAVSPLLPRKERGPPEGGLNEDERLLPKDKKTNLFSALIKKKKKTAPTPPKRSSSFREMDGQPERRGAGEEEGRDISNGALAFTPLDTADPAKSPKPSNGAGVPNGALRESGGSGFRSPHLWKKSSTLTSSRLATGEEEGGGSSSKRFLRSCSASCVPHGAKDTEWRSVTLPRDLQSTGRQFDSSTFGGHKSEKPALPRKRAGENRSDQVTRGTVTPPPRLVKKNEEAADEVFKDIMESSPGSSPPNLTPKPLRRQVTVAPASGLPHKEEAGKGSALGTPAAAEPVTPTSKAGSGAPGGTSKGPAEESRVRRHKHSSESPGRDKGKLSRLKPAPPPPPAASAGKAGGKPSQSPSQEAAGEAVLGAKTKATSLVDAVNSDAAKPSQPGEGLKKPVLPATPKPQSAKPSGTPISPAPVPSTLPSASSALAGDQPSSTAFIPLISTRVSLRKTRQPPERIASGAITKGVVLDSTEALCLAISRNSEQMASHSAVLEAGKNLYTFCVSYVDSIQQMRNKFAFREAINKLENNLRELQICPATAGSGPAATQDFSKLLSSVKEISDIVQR

| Compound | LC50 [1] | LC50 [2] | LC50 [3] | LC50 [4] | LC50 [5] | TGI [6] | LC50 [7] | TGI [8] | LC50 [9] | Activity [10] | LC50 [11] | Activity [12] | LC50 [13] | LC50 [14] | TGI [15] | LC50 [16] | LC50 [17] | Activity [18] | TGI [19] | Activity [20] | other results |
| --- | --- | --- | --- | --- | --- | --- | --- | --- | --- | --- | --- | --- | --- | --- | --- | --- | --- | --- | --- | --- | --- |
| c1ccc(Cc2cnc(N3CCN(c4ncnc5ccccc45)CC3)nc2)cc1 | > 100 µM | 54.8 µM | > 100 µM | 97.3 µM | 48.2 µM | > 100 µM | > 100 µM | 38.1 µM | > 100 µM | 74% | > 100 µM | 30% | > 100 µM | 36.4 µM | 60.8 µM | 63.1 µM | > 100 µM | 89% | > 100 µM | 46% | Activity [21]: 100%; TGI [22]: 57.9 µM; LC50 [23]: > 100 µM; LC50 [24]: > 100 µM; LC50 [25]: 41.4 µM; LC50 [26]: > 100 µM; TGI [27]: 27.7 µM; TGI [28]: 25.9 µM; TGI [29]: 24.4 µM; Activity [30]: 45%; LC50 [31]: 79.8 µM; TGI [32]: 57.2 µM |
| CCc1cnc(N2CCN(C(=O)c3ccc(CNc4ncnc5ccccc45)cc3)CC2)nc1 | > 100 µM | > 100 µM | > 100 µM | > 100 µM | > 100 µM | > 100 µM | > 100 µM | 84.9 µM | > 100 µM | 80% | > 100 µM | > 50% | > 100 µM | > 100 µM | > 100 µM | > 100 µM | > 100 µM | 82% | > 100 µM | > 50% | Activity [21]: 100%; TGI [22]: 41.6 µM; LC50 [23]: > 100 µM; LC50 [24]: > 100 µM; LC50 [25]: > 100 µM; LC50 [26]: > 100 µM; TGI [27]: 45.1 µM; TGI [28]: 80.9 µM; TGI [29]: 59 µM; Activity [30]: 29%; LC50 [31]: > 100 µM; TGI [32]: 100 µM |
| O=C(c1cccc(Nc2ncnc3ccccc23)c1)N1CCN(c2ncc(Cc3ccccc3)cn2)CC1 | 5.62 µM | > 100 µM | 7.94 µM | 3.89 µM | > 100 µM | 2.23 µM | 4.47 µM | 2.95 µM | 7.41 µM | 95% | > 100 µM | 20% | 9.33 µM | > 100 µM | 6.17 µM | 5.37 µM | 5.5 µM | 83% | 8.91 µM | > 50% | Activity [21]: 73%; TGI [22]: 11.5 µM; LC50 [23]: 5.01 µM; LC50 [24]: > 100 µM; LC50 [25]: 5.37 µM; LC50 [26]: > 100 µM; TGI [27]: 4.27 µM; TGI [28]: 1.86 µM; TGI [29]: 7.08 µM; Activity [30]: 23%; LC50 [31]: > 100 µM; TGI [32]: > 100 µM |
